The text below walks through data of ChEMBL document CHEMBL1134135, “Nitrobenzene compounds inhibit expression of VCAM-1” (Bioorg Med Chem Lett, 2001).

In this assay the target is T1, Vascular cell adhesion protein 1 (Homo sapiens, UniProt P19320).
T1 sequence (P19320 whole entry): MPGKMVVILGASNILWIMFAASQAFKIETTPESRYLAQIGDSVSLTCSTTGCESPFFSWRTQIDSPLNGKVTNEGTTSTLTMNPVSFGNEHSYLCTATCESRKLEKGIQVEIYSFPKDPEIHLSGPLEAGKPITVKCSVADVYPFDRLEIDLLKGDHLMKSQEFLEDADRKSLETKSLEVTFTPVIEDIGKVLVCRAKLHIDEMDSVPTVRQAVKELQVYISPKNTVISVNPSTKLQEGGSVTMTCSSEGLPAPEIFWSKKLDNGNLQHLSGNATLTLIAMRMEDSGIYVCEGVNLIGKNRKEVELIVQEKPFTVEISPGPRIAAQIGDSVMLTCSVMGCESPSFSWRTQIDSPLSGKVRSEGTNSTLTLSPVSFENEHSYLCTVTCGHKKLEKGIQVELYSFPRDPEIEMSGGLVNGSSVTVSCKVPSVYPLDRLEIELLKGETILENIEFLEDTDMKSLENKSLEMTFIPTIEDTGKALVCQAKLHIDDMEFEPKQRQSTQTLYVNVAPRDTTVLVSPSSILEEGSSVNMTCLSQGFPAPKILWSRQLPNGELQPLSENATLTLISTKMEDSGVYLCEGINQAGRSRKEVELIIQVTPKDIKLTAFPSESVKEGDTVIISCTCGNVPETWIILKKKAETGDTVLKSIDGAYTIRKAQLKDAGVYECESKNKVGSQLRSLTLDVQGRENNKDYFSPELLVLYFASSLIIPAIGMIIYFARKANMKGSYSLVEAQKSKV
Briefly: Ability to inhibit expression of Vascular cell adhesion molecule 1; No effect.

With `O=C(O)C1CCN(S(=O)(=O)c2ccc(Cl)c([N+](=O)[O-])c2)CC1`, the IC50 entry is recorded as “Not Active”.
As for `O=[N+]([O-])c1ccccc1Cl`, the entry is “Not Active”.
In the case of `CCN(CC)c1ccc(S(=O)(=O)N(CC)CC)cc1[N+](=O)[O-]` it was “Not Active”; in that of `CCN(CC)S(=O)(=O)c1cccc([N+](=O)[O-])c1`, “Not Active”; in that of `N#Cc1cc(Cl)cc(Cl)c1`, “Not Active”.
As for `CCN(CC)S(=O)(=O)c1ccc(Cl)cc1`, the entry is “Not Active”.
